Source: patent US20150330990A1, “METHOD OF SCREENING CANDIDATE BIOCHEMICAL ENTITIES TARGETING A TARGET BIOCHEMICAL ENTITY” (BIODESY, INC., priority 2013, published 2015)
“And” between values parts separate entries of the source, which are not always exact repeats. Equal values may be shown once.

What was measured:
[1] = system: Raf kinase; assay: SHG signature on Raf kinase surface array (Example 4); format: binding; settings: positive direction
Procedure: A library comprising 200 distinct compounds and Sorafenib, each with a molecular weight between 400 and 500 g/mol, three aromatic groups, and 2-5 nitrogen atoms, is evaluated for the structure-activity relationship using a surface array comprising more than 200 copies of a Raf kinase. The conformation state of the Raf kinase is measured by […] (SHG) methods described in the present application to establish a baseline in the absence of any compound. Each compound in the library is then contacted with a single copy of the Raf kinase on the array. The conformational state of each copy of the single kinase target is measured by SHG methods. The SHG signature for each compound is determined based on the change in conformational state upon contacting the Raf kinase. Sorafenib has a SHG signature with a 30% shift (i.e. magnitude) in the positive direction. The compounds are grouped, based on their SHG signature and common structural parameters, to generate a structure-activity relationship (SAR) catalog. For example, the 8 compounds that have a signature within 10% in magnitude to that of Sorafenib are cataloged as “molecular weight between 400 and 500 g/mol, three aromatic groups, 2-5 nitrogen atoms, and a signature with +27% to +33% magnitude”. […]

[2] = target: T1, alpha-synuclein (Homo sapiens, UniProt P37840); settings: cited from earlier work
[3] = target: T1, alpha-synuclein; assay: Thioflavin T assay / fibrillization of alpha-synuclein in vitro; format: biochemical
[4] = target: T2, alpha-synuclein (Homo sapiens, UniProt P37840, A90C); assay: SHG conformational change assay, compound added alone; format: binding; set-up: made in house; settings: for EC50: 5 μM alpha-synuclein, GraphPad non-linear fit, read-out: EC50 (SHG dose-response curve; binding affinity)
From the text: A single-site cysteine mutant […]) of the alpha-synuclein was constructed and labeled with PyMPO-maleimide (Invitrogen), an SH-active probe that we have used in previous studies ([…], Journal of Chemical Physics 125(7), 2006; […], Physical Chemistry Chemical Physics 9(42):5704-5711, 2007). Mutant […]) protein was previously determined to function like wild-type (Bertoncini C W, et al., Proceedings of the National Academy of Sciences of the United States of America 102(5):1430-1435, 2005). The label was coupled to the protein according to the manufacturer's instructions and purified by gel filtration. Artemis SHG Screening Instrumentation: The Artemis instrument is comprised of a mode-locked Ti:sapphire oscillator that provides the fundamental beam necessary to generate second-harmonic light (high peak power intensity). […] Each of the 16 wells is read in sequence by translating the stage via the control software. Artemis was outfitted with a single-channel liquid injector (Cavro) which delivered a liquid bolus. The liquid bolus volume and delivery speed could be varied. In the experiments described here, we used a volume of 10 μl delivered in 1 second. The measured parameters include the read time before and after ligand injection, integration time, stage temperature (kept at room temperature for all experiments here), and the stage position, relative to the line of the fundamental beam. A custom silicone template with adhesive backing (Arrowleaf Research) was applied to commercially available Xenobind glass microscope slides (Xenopore) using a custom machined assembly jig to define 16 wells of diameter 3 mm (volume 15 μl) on each slide. The template defining the wells is registered to a standard 96-well plate. […] After allowing the protein to absorb, the slide was placed on the […] platform and each well was scanned via SHG to determine the amount of protein in each well. Unbound protein was then removed by washing five times with 20 μL PBS. A post-wash well scan was then performed to determine how much protein was bound to the slide surface. To determine the dose-response curves of Spermine (Sigma), Spermidine (Sigma), and COMPOUND A, serial dilutions of each compound were used to prepare stock solutions. Each compound was added to a well to produce the indicated final concentration. […] For COMPOUND A the concentration range was 5 μ[…], and 1 mM. The concentrations were then converted to the log scale and the data plotted in GraphPad Prism V5 using the non-linear regression fit for log(agonist) vs response with variable slope. […] The EC50 values were calculated by the software. Control experiments were performed on each compound to empirically determine the time frame required for each compound to produce a maximal response (Tmax). […] The resulting value was reported as the percent change in SHG intensity due to compound addition.

[5] = target: T2, alpha-synuclein; settings: 1 mM Dopamine, 50 mM Hepes pH 7.4, 100 mM NaCl
Procedure: An alanine to cysteine mutation (A90C) was introduced into alpha-synuclein to produce a site-specific peptide for dye conjugation, as native alpha-synuclein lacks cysteine residues. A90C alpha-synuclein was then labeled with PyMPO-Maleimide using standard techniques and the location of the modified peptide was verified by mass spectroscopy to be cysteine 90.
For SHG experiments performed with alpha-synuclein, a stock solution of PyMPO-Maleimide-labeled A90C alpha-synuclein was diluted to a final concentration of 5 μM in 50 mM Hepes, pH 7.4, 100 mM NaCl. The 5 μM protein solution was then immobilized onto an aldehyde derivatized glass slide by incubating for one hour at room temperature. Control (buffer) and compound injections were performed in 50 mM Hepes, pH 7.4, 100 mM NaCl.
The experiments were performed with an instrument comprising a mode-locked Ti:sapphire oscillator which provides the fundamental beam necessary to generate the second-harmonic signal (high peak power intensity). We used a Mira 900 Ti:Sapphire ultrafast oscillator (Coherent Inc.) pumped by a Millenia V DPSS laser (Spectra-Physics Corp.). The Ti:sapphire oscillator produced ˜0.7 W of fundamental power at 780 nm with pulse duration of ˜150 fs at 80 MHz. […]

[6] = target: T2, alpha-synuclein; assay: SHG competition assays (spermine-spermidine, spermine-COMPOUND A, analog-spermine, library screen); format: binding; set-up: made in house; settings: 3 mM Spermidine added after 25 minutes incubation with 1 mM Spermine
Procedure: The Maybridge Ro3 fragment library contains over 1,000 pharmacophoric compounds of 95% purity solubilized at 50 mM in DMSO. For fragment screening experiments, a single compound from the library was diluted in PBS and placed in each well at a final concentration of 1 mM ([…]).
After 25 minutes, 3 mM spermidine was added to each well and the resulting change in SHG intensity was measured.
To calculate the percent change, the SHG intensity as measured just prior to injection (T0) was subtracted from the SHG intensity at Tmax and then divided by T0 according to the following equation: SHG %=(ISHG@Tmax−ISHG@T0)/ISHG@T0.
A control buffer injection was used to determine the threshold for SHG intensity change and was calculated in a similar manner to above. The net SHG intensity change for each compound was then reported by subtracting the buffer threshold value from the SHG intensity value produced by compound addition. The resulting value was reported as the percent change in SHG intensity due to compound addition.
Each well was loaded with 5 μM alpha-synuclein and pre-incubated with one fragment compound from the Maybridge Ro3 library for 30 minutes at 1 mM in assay buffer. […] As shown in FIG. 2C (right trace), addition of 1 mM COMPOUND A to alpha-synuclein changes the SHG baseline signal immediately.

CNC(=O)c1cc(Oc2ccc(NC(=O)Nc3ccc(Cl)c(C(F)(F)F)c3)cc2)ccn1 [Sorafenib]
SHG signature shift (magnitude) [1]: 30%

NCCCNCCCCNCCCN [Spermine]
factor of increase of aggregation rate in vitro [2]: 10^5
increase of the rate of aggregation of alpha-synuclein in vitro [3]: roughly two-fold
EC50 [4]: 840 µM and 790 µM
Compound Only (% Shift/% Change) ([4]; 1 mM): 30.23 ± 3.69%
change in SHG intensity ([4]; 1 mM compound added alone to 5 μM alpha-synuclein): 25.58±4.33% and 30.23±3.69%
change in the SHG intensity ([4]; 5 mM compound added alone to 5 μM alpha-synuclein): 36.26±4.97% and 37.44±6.40%

NCCc1ccc(O)c(O)c1 [Dopamine]
average percent change in the SHG intensity of alpha-synuclein [5]: 3.375±1.13%

NCCCCNCCCN [Spermidine]
change in SHG intensity [6]: 5.1±0.81%
EC50 [4]: 1110 µM
increase in SHG intensity ([4]; 3 mM compound added alone): 19.88±2.37%
logEC50 ([4]; SHG dose-response curve): −2.95±0.19

Phthalocyanine Tetrasulfonate [PcTs]
change in the SHG intensity of alpha-synuclein ([4]; treatment with 10 μM PcTS): −79.6±2.7%
